{
  "source": "patent US20250205286A1",
  "about": "“COMPOSITIONS, REAGENTS, AND METHODS FOR TREATING PITT-HOPKINS SYNDROME” (Vitro Biopharma, Inc., priority 2022, published 2025)",
  "test_system": "Hsp70 secretion from UC-MSCs",
  "test": "Hsp70 secretion from cultured UC-MSCs exposed to LiCl (immunoassay)",
  "format": "cell-based, human",
  "conditions": "200 micromolar LiCl; medium collected 96 hours later; p<0.05",
  "description": "FIG. 7 is a graph showing the secretion of heat shock protein 70 (Hsp70) from cultured UC-MSCs (e.g., ALLORX STEM CELLS®) and the effects of increasing concentrations of lithium chloride (LiCl) on Hsp70 secretion.\nUC-MSCs were plated at 5,000 cells/cm^2 in T-25 flasks and cultured until confluence was 80-90%. The cells were then exposed to the LiCl concentrations shown on the x axis and the medium was collected 96 hours later and assayed by immunoassay for Hsp70. […] Since Hsp70 mediates cellular protection as a chaperone molecule and through antiapoptotic mechanisms (refs), its enhanced secretion from MSCs (possible through inclusion in exosomes Ref) may reflect mechanisms of stem cell activation by GSK-3p inhibition in conjunction with HDAC inhibition (e.g., see U.S. application Ser. No. 17/239,513 which is incorporated by reference). This effect is a possible mode of action of the therapy proposed by the present disclosure.",
  "data": [
    {"smiles": "[Cl-].[Li+]", "note": "[LiCl, lithium chloride]", "values": [
      {"measurement": "secretion of Hsp70", "value": "significant increased secretion"}
    ]}
  ]
}
